One series deals with Spodoptera littoralis. The note with it: cited from earlier work.
For series [1], the system named is dengue virus type 2 (DENV-2). The note with it: cited from earlier work.
The test system of another series is Zika virus (ZIKV). Particulars: cited from earlier work.
The next series concerns ZIKV. Particulars: mouse, in vivo; cited from earlier work.
The subject of the next series is wt-YFV. It is filed as cell-based, yellow fever virus.
A further series is described as follows: in vitro. Particulars: African green monkey (Cercopithecus aethiops).
The subject of series [2] is herpes simplex virus (type 1). The note with it: cited from earlier work.

As to `COc1cc2c(cc1OC)[C@@H]1[C@H](O)[C@@H](OC)[C@H](OC(C)=O)C3=CCN(C2)[C@H]31` [3-O-acetyl-narcissidine, 3-O-acetylnarcissidine], the antifeedant effect entry with Spodoptera littoralis is listed as “exhibited an antifeedant effect”.

As to `O[C@H]1[C@H]2c3cc4c(cc3CN3CCC(=C[C@@H]1O)[C@H]23)OCO4` [lycorine], the “antiviral activity against DENV-2” value in series [1] is recorded as “exhibits antiviral activity”. In the series with Zika virus (ZIKV), the “antiviral activity against ZIKV” value is given as “exhibits antiviral activity”. In the series on ZIKV, the mortality entry is reported as “reduced mortality” and the “viral load in the blood” value is “lower viral load in the blood”.

Take `N[C@@H](Cc1c[nH]c2ccccc12)C(=O)O` [tryptophan]: the “antiviral activity against wt-YFV” value in the series with wt-YFV is “did not reveal significant antiviral activity”. Also, the CC50 in “in vitro” amounted to 0.578 mM.

Take `NC(=O)C[C@H](N)C(=O)O` [asparagine]: in the series on wt-YFV, the “antiviral activity against wt-YFV” value was “did not reveal significant antiviral activity”. Further, the CC50 in “in vitro” is roughly 1 mM.

For `N[C@@H](CCC(=O)O)C(=O)O` [glutamic acid], the “antiviral activity against wt-YFV” value in the series with wt-YFV is listed as “did not reveal significant antiviral activity”.

Turning to `COc1c2c(cc3c1OCO3)[C@@]13CCN(C2)[C@@H]1CC[C@H](O)[C@@H]3O` [Bulbisine, bulbisine], in the series with wt-YFV, the “antiviral activity against wt-YFV” value is recorded as “did not reveal significant antiviral activity”. Moreover, in “in vitro”, the CC50 was 0.123 mM.

For the molecule `N=C(N)NCCC[C@H](N)C(=O)O` [arginine], in the series on wt-YFV, the “antiviral activity against wt-YFV” value was “did not reveal significant antiviral activity”. The molecule also showed a CC50 in the series “in vitro” of roughly 1 mM.

Take `C[n+]1cccc(C(=O)[O-])c1` [Trigonelline, trigonelline]: the “antiviral activity against wt-YFV” value with wt-YFV is “did not reveal significant antiviral activity”. For the same molecule, the CC50 in the series “in vitro” was roughly 1 mM. In addition, in series [2], the “inhibition of survival of herpes simplex virus (type 1)” value is recorded as “significantly inhibited the survival”.

These data come from publication PMC12608337 (Molecules, 2025).
